Strand notation (5' to 3'): a small letter for the sugar, then the base; units joined by * are phosphorothioate-linked, units joined directly phosphodiester-linked; [ ] holds rarer units or linkages, { } end groups; capitals alone tell only the bases. k = constrained ethyl (cEt); [5mC] = 5-methylcytosine; d = 2'-deoxy (DNA)
Test system: Yap1 mRNA
Experiment: Antisense inhibition of human Yap1 in A-431 cells by cEt gapmers, single dose (Example 4, RTS4814)
Format: cell-based
Procedure, shortened: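 Values are % UTC: Yap1 mRNA by quantitative RT-PCR, normalized to RIBOGREEN total RNA. Cells were exposed ~48 h to 2,000 nM oligonucleotide without transfection. Oligonucleotides were 16-nucleoside gapmers with three cEt nucleosides per wing, ten-deoxy gap, P=S linkages throughout.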

[1] = Table 15, A-431 cells, 5,000 cells per well, free uptake, 2,000 nM, approximately 48 hours, RTS4814, normalized to RIBOGREEN, Yap1 mRNA relative to untreated control, * = targets amplicon region of primer probe set
[2] = Yap1 mRNA remaining as percent of untreated control, 3-10-3 cEt gapmers, A-431 cells, Table 36
[3] = Yap1 mRNA remaining as percent of untreated control, 3-10-3 cEt gapmers, A-431 cells, Table 37
[4] = Table 16, A-431 cells, 5,000 cells per well, free uptake, 2,000 nM, approximately 48 hours, RTS4814, normalized to RIBOGREEN, Yap1 mRNA relative to untreated control cells
[5] = Table 14, A-431 cells, 5,000 cells per well, free uptake, 2,000 nM, approximately 48 hours, RTS4814, normalized to RIBOGREEN, Yap1 mRNA relative to untreated control, * = targets amplicon region of primer probe set
[6] = Table 17, A-431 cells, 5,000 cells per well, free uptake, 2,000 nM, approximately 48 hours, RTS4814, normalized to RIBOGREEN, Yap1 mRNA relative to untreated control cells

## 1076353 (kA*kT*kT*dA*dA*dA*d[5mC]*dA*dT*dT*d[5mC]*dG*dG*kA*kT*kT; antisense) [Compound 1076353]
[1]
  YAP1 (% UTC): 30 % UTC

## 1076214 (kA*kT*k[5mC]*d[5mC]*dT*dA*dT*dA*d[5mC]*dA*dT*dT*dA*kA*kG*kA; antisense) [compound 1076214]
[2]
  YAP1 (% UTC): 67 % UTC

## 1075415 (antisense k[5mC]*kA*kT*dT*dA*dA*dA*dT*dG*dA*d[5mC]*dA*dG*k[5mC]*k[5mC]*kT) [compound 1075415]
[3]
  YAP1 (% UTC): 52 % UTC

## 1074326 (antisense kA*k[5mC]*kG*d[5mC]*dA*dG*dG*dG*d[5mC]*dT*dA*dA*d[5mC]*kT*k[5mC]*k[5mC]) [compound 1074326]
[2]
  YAP1 (% UTC): 36 % UTC

## 1075137 (antisense kG*kA*kT*dT*dA*dA*dA*dT*dA*d[5mC]*dT*dG*dA*k[5mC]*k[5mC]*kA) [Compound 1075137]
[1]
  YAP1 (% UTC): 3 % UTC

## 1076054 (k[5mC]*kA*kT*dT*dA*dG*dA*d[5mC]*dT*dT*dT*d[5mC]*dT*kG*kT*k[5mC]; antisense) [compound 1076054]
[2]
  YAP1 (% UTC): 21 % UTC

## 1075010 (antisense kA*kA*kT*dA*dA*dT*d[5mC]*dG*dA*dA*d[5mC]*dA*dT*kT*kG*kT) [Compound 1075010]
[4]
  YAP1 (% UTC): 88 % UTC

## 1074198 (antisense kT*kT*kG*d[5mC]*d[5mC]*d[5mC]*dG*dG*dG*dT*d[5mC]*d[5mC]*dG*kG*kA*k[5mC]) [compound 1074198]
[2]
  YAP1 (% UTC): 112 % UTC

## 1075584 (kA*kA*kT*dA*dA*dT*dT*dG*dA*d[5mC]*d[5mC]*dT*dA*kG*k[5mC]*kA; antisense) [Compound 1075584]
[5]
  YAP1 (% UTC): 57 % UTC

## 1074967 (antisense kG*kA*k[5mC]*dA*dA*dA*dT*dT*dG*dA*dA*dG*dT*kG*kT*kT) [compound 1074967]
[3]
  YAP1 (% UTC): 116 % UTC

## 1075587 (k[5mC]*kT*kT*dA*dT*dT*dA*dG*d[5mC]*dA*d[5mC]*d[5mC]*dT*kG*kG*kG; antisense) [Compound 1075587]
[6]
  YAP1 (% UTC): 50 % UTC

## 1074560 (antisense k[5mC]*k[5mC]*kA*dA*dT*d[5mC]*dG*dA*dG*dA*d[5mC]*dT*dT*kA*kA*kA) [Compound 1074560]
[5]
  YAP1 (% UTC): 3 % UTC

## 1075074 (antisense kT*kA*kT*dA*dG*dT*dA*dA*dG*dA*d[5mC]*dT*dA*kA*kT*k[5mC]) [Compound 1075074]
[4]
  YAP1 (% UTC): 105 % UTC

## 1075254 (kT*k[5mC]*k[5mC]*d[5mC]*dA*dA*dA*dA*dG*dT*d[5mC]*dA*dT*k[5mC]*kG*k[5mC]; antisense) [compound 1075254]
[2]
  YAP1 (% UTC): 28 % UTC

## 1075286 (antisense kA*kT*kT*dA*d[5mC]*dG*dG*dA*d[5mC]*dA*dG*dA*dA*kG*kT*kG) [compound 1075286]
[2]
  YAP1 (% UTC): 48 % UTC

## 1076224 (kT*kA*kT*dA*dA*dA*d[5mC]*d[5mC]*dT*dT*dG*d[5mC]*dT*kA*k[5mC]*kA; antisense) [Compound 1076224]
[5]
  YAP1 (% UTC): 67 % UTC

## 1075745 (k[5mC]*kT*kT*d[5mC]*dA*dA*dA*dA*dG*d[5mC]*dA*d[5mC]*dG*kG*kT*kG; antisense) [Compound 1075745]
[1]
  YAP1 (% UTC): 58 % UTC

## 1075318 (antisense kA*kT*k[5mC]*d[5mC]*dT*dA*dA*dA*dG*d[5mC]*d[5mC]*dA*d[5mC]*kT*kG*k[5mC]) [compound 1075318]
[2]
  YAP1 (% UTC): 72 % UTC

## 1074273 (antisense k[5mC]*kT*kT*dA*dT*dG*dG*dT*dT*dT*dA*dT*dA*kT*kA*kG) [Compound 1074273]
[1]
  YAP1 (% UTC): 34 % UTC

## 1075873 (k[5mC]*kT*kT*dG*dA*dA*dT*dA*d[5mC]*dT*dA*d[5mC]*dA*k[5mC]*k[5mC]*kA; antisense) [Compound 1075873]
[1]
  YAP1 (% UTC): 16 % UTC

## 1074753 (kT*kA*k[5mC]*dA*dT*dT*dA*dG*dG*dA*dA*d[5mC]*dA*kA*kG*kG; antisense) [Compound 1074753]
[1]
  YAP1 (% UTC): 4 % UTC

## 1075907 (kA*kA*kT*dT*dA*d[5mC]*dT*dA*d[5mC]*dT*dG*dG*d[5mC]*k[5mC]*kA*kT; antisense) [Compound 1075907]
[6]
  YAP1 (% UTC): 55 % UTC

## 1075638 (antisense kA*kT*kT*dA*dA*d[5mC]*d[5mC]*dA*dG*dA*dA*dG*d[5mC]*k[5mC]*kT*kG) [compound 1075638]
[2]
  YAP1 (% UTC): 79 % UTC

## 1074337 (antisense kG*kA*kG*dT*d[5mC]*d[5mC]*d[5mC]*dA*d[5mC]*d[5mC]*dA*dT*d[5mC]*k[5mC]*kT*kG) [Compound 1074337]
[1]
  YAP1 (% UTC): 10 % UTC

## 1075905 (k[5mC]*k[5mC]*kT*dG*dA*dA*d[5mC]*dA*d[5mC]*dA*dG*dG*dA*kG*kT*kA; antisense) [Compound 1075905]
[1]
  YAP1 (% UTC): 43 % UTC

## 1074592 (antisense kG*kG*kA*dG*d[5mC]*dA*dA*dG*dT*d[5mC]*dT*dT*dG*kT*kA*kA) [Compound 1074592]
[5]
  YAP1 (% UTC): 23 % UTC

## 1075382 (antisense kA*kT*kT*dA*dT*dT*dA*d[5mC]*d[5mC]*d[5mC]*dT*dA*d[5mC]*kT*k[5mC]*kA) [compound 1075382]
[2]
  YAP1 (% UTC): 33 % UTC

## 1075842 (kG*kT*kA*dT*dT*dT*dA*dG*dG*dT*dA*d[5mC]*dT*k[5mC]*kA*kG; antisense) [Compound 1075842]
[4]
  YAP1 (% UTC): 2 % UTC

## 1076130 (k[5mC]*kT*kG*dG*dA*dA*dT*dA*dG*dT*dG*dG*dG*kT*kG*k[5mC]; antisense) [Compound 1076130]
[4]
  YAP1 (% UTC): 34 % UTC

## 1074561 (antisense kA*kA*kT*dT*d[5mC]*d[5mC]*dA*dA*dT*d[5mC]*dG*dA*dG*kA*k[5mC]*kT) [Compound 1074561]
[1]
  YAP1 (% UTC): 10 % UTC

## 1075298 (kA*kT*k[5mC]*dT*d[5mC]*dG*dG*dA*dA*dA*dT*dT*dT*kA*kA*kA; antisense) [Compound 1075298]
[4]
  YAP1 (% UTC): 128 % UTC

## 1076162 (kA*kT*kT*dT*dA*d[5mC]*dT*dT*dG*dG*d[5mC]*dA*dA*k[5mC]*kT*k[5mC]; antisense) [Compound 1076162]
[4]
  YAP1 (% UTC): 9 % UTC

## 1075520 (k[5mC]*k[5mC]*k[5mC]*d[5mC]*dA*dA*d[5mC]*dA*dA*d[5mC]*dT*dG*d[5mC]*kT*kA*kA; antisense) [Compound 1075520]
[5]
  YAP1 (% UTC): 77 % UTC

## 1074550 (DNA kA*kT*kA*dT*d[5mC]*dT*dA*d[5mC]*d[5mC]*dG*dT*dA*dT*kG*k[5mC]*k[5mC]; antisense) [compound 1074550]
[2]
  YAP1 (% UTC): 23 % UTC

## 1074818 (kA*k[5mC]*kT*dG*dA*dA*dT*dA*dT*dT*dG*d[5mC]*d[5mC]*kA*k[5mC]*k[5mC]; antisense) [Compound 1074818]
[4]
  YAP1 (% UTC): 12 % UTC

## 1076227 (kA*k[5mC]*kT*dT*dA*dT*dA*dA*dG*dG*d[5mC]*d[5mC]*dA*kG*k[5mC]*kA; antisense) [Compound 1076227]
[6]
  YAP1 (% UTC): 16 % UTC

## 1075937 (kA*k[5mC]*kT*dT*dA*dT*dA*dT*dT*d[5mC]*dT*d[5mC]*dT*k[5mC]*k[5mC]*kG; antisense) [Compound 1075937]
[1]
  YAP1 (% UTC): 36 % UTC

## 1076438 (kT*kA*kG*dG*dA*dA*dG*dA*dA*dT*dA*dG*d[5mC]*kA*kT*k[5mC]; antisense) [compound 1076438]
[2]
  YAP1 (% UTC): 13 % UTC

## 1075191 (kA*k[5mC]*kG*dG*dG*dA*dA*dA*dG*dA*dA*dA*dG*kG*k[5mC]*k[5mC]; antisense) [compound 1075191]
[3]
  YAP1 (% UTC): 83 % UTC

## 1074912 (antisense kA*kT*k[5mC]*d[5mC]*d[5mC]*dG*dA*dG*dT*dG*dG*dG*d[5mC]*kT*kA*kA) [Compound 1074912]
[5]
  YAP1 (% UTC): 85 % UTC

## 1074307 (antisense kG*kT*kG*dG*d[5mC]*d[5mC]*dT*d[5mC]*dA*d[5mC]*d[5mC]*dT*dG*k[5mC]*k[5mC]*kG) [Compound 1074307]
[6]
  YAP1 (% UTC): 105 % UTC

## 1075104 (antisense kA*kT*kT*dA*dT*dA*dA*dG*dG*dT*d[5mC]*d[5mC]*dT*kA*k[5mC]*kA) [Compound 1075104]
[5]
  YAP1 (% UTC): 67 % UTC

## 1074786 (kA*kA*k[5mC]*d[5mC]*dA*dT*dA*dA*dG*dT*dA*dG*dA*kT*k[5mC]*kT; antisense) [Compound 1074786]
[4]
  YAP1 (% UTC): 28 % UTC

## 1074390 (k[5mC]*kT*kG*d[5mC]*dA*dG*dA*d[5mC]*dT*dT*dG*dG*d[5mC]*kA*kT*k[5mC]; antisense) [compound 1074390]
[2]
  YAP1 (% UTC): 64 % UTC

## 1075395 (kA*kT*kG*dA*dA*dT*dA*dA*dG*dT*dA*dT*dG*k[5mC]*k[5mC]*kA; antisense) [Compound 1075395]
[6]
  YAP1 (% UTC): 4 % UTC

## 1075063 (antisense kT*kA*k[5mC]*dG*dG*dA*dA*dG*dG*d[5mC]*d[5mC]*dA*dA*k[5mC]*kT*kG) [compound 1075063]
[3]
  YAP1 (% UTC): 16 % UTC

## 1074934 (antisense k[5mC]*kA*kG*dG*dA*dG*dA*d[5mC]*dT*dA*dT*dA*d[5mC]*kA*kA*k[5mC]) [compound 1074934]
[2]
  YAP1 (% UTC): 74 % UTC

## 1074371 (antisense kG*kT*kT*dG*dA*dT*dA*dG*dT*dA*dT*d[5mC]*dA*k[5mC]*k[5mC]*kT) [Compound 1074371]
[6]
  YAP1 (% UTC): 31 % UTC

## 1075683 (k[5mC]*kT*kG*dA*dA*dA*dA*dA*dG*dT*dT*dA*dT*kG*k[5mC]*k[5mC]; antisense) [Compound 1075683]
[6]
  YAP1 (% UTC): 56 % UTC
